These results are taken from patent US7074789B2, “Kinase inhibitors” (Amgen Inc., priority 1999, dated 2006).

Structures are written as SMILES.

Format in all cases: biochemical
One assay addresses T1, Lck (Homo sapiens, UniProt P06239).
T1 construct: Kinases are expressed as either kinase domains or full length constructs; made in house
Description: Kinase inhibition assay (33P transfer), Lck. Particulars: read-out: Lck-1. The method, boiled down:
(§1)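 33P-ATP transfer to coated synthetic polymer substrates; acid wash (0.5% H3PO4), scintillant, liquid scintillation count. Enzymes: His- or GST-fusion kinases from E. coli or High Five insect cells.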

Another assay deals with T2, EGFR (Homo sapiens, UniProt P00533).
T2 construct: Kinases are expressed as either kinase domains or full length constructs; made in house
T2 sequence (P00533 25-1210, species assumed): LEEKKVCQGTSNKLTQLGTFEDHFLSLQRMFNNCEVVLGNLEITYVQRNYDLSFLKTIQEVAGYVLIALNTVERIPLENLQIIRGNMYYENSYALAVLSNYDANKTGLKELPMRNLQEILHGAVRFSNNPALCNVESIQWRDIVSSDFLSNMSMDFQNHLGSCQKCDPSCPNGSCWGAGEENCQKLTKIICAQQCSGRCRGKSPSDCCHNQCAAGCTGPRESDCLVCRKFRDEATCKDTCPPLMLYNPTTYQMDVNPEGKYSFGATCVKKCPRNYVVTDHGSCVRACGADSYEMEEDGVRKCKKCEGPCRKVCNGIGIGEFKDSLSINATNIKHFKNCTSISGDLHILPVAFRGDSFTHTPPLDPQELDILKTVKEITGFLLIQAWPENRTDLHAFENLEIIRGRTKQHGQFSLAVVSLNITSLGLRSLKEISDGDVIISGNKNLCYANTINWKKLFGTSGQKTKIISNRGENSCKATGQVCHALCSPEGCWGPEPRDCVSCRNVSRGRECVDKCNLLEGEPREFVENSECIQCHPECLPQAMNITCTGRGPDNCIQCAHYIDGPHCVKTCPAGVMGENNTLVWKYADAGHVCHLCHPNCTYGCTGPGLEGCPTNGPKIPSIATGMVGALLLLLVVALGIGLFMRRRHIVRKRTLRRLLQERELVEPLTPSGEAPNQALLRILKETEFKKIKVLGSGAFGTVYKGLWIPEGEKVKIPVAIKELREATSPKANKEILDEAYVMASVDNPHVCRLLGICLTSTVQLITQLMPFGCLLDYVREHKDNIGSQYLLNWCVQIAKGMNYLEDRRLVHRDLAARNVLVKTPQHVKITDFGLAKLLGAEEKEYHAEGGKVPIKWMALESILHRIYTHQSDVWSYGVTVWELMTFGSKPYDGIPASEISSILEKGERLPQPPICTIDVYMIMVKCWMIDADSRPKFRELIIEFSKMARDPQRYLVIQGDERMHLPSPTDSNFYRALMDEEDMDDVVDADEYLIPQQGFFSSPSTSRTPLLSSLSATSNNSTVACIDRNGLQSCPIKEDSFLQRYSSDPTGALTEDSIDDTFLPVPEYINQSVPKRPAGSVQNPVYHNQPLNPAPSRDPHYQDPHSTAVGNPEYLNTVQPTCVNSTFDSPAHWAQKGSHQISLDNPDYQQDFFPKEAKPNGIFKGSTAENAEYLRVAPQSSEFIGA
As to the kind of experiment: Kinase inhibition assay (33P transfer), EGFR. The note with it: Table 2, kinase inhibition class; read-out: EGFR-1. The method, boiled down:
(§2)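 GST/His-fusion kinases, E. coli or High Five expressed, affinity purified; 33P-ATP, plate-coated poly(Glu,Tyr) 4:1 or poly(Arg,Ser) 3:1; 0.5% H3PO4 wash, scintillant, LSC.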

Another assay deals with T3, Itk (Homo sapiens, UniProt Q08881).
T3 construct: Kinases are expressed as either kinase domains or full length constructs; made in house
T3 sequence (Q08881 1-620): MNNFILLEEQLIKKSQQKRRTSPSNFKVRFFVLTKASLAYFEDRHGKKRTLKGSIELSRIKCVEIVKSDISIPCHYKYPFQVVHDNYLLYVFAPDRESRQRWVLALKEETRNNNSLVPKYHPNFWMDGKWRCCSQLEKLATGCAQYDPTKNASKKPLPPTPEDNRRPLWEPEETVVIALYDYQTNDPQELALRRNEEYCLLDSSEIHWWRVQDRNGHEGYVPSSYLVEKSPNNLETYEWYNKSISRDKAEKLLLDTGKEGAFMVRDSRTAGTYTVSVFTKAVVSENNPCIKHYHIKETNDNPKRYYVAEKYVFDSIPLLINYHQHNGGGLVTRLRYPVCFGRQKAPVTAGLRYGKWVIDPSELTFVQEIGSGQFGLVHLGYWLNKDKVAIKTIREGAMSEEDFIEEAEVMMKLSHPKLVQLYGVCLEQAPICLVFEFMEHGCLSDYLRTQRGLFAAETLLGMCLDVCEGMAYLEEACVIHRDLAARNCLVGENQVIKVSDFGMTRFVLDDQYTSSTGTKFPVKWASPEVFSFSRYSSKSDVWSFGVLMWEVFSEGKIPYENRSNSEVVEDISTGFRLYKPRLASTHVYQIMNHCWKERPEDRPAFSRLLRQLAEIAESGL
As to the kind of experiment: Kinase inhibition assay (33P transfer), Itk. The note with it: read-out: Itk-1. Summed up: as §2

The target of a further assay is T4, Zap-70 (Homo sapiens, UniProt P43403).
T4 construct: Kinases are expressed as either kinase domains or full length constructs; made in house
T4 sequence (P43403 1-619): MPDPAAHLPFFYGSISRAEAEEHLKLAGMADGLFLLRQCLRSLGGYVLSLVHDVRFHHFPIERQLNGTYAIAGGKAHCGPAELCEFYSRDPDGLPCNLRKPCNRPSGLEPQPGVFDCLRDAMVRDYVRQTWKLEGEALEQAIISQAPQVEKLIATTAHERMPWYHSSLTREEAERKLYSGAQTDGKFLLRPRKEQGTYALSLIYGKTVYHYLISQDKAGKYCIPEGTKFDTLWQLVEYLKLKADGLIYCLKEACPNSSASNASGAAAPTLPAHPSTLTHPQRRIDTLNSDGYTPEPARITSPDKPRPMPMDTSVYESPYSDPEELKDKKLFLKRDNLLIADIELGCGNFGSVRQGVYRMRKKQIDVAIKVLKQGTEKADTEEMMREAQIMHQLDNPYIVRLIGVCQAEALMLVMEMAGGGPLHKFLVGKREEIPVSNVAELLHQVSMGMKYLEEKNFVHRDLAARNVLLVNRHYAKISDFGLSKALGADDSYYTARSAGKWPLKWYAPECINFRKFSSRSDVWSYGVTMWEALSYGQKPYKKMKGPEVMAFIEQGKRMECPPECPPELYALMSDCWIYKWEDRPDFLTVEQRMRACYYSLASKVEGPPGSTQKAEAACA
As to the kind of experiment: Kinase inhibition assay (33P transfer), Zap-70. The note with it: read-out: Zap-1. The method, boiled down:
as §1

A further assay has as its target T5, ErbB2 (Homo sapiens, UniProt P04626).
T5 construct: Kinases are expressed as either kinase domains or full length constructs; made in house
Description: Kinase inhibition assay (33P transfer), ErbB2. Particulars: read-out: ErbB2-2. The method, boiled down: as §2

A further assay has as its target T6, c-Met (Homo sapiens, UniProt P08581).
T6 construct: Kinases are expressed as either kinase domains or full length constructs; made in house
Description: Kinase inhibition assay (33P transfer), c-Met. The note with it: Table 2, kinase inhibition class; read-out: Met-1. Summed up:
as §2

Another assay deals with T7, Kdr (Homo sapiens, UniProt P35968).
T7 construct: Kinases are expressed as either kinase domains or full length constructs; made in house
T7 sequence (P35968 20-1356, species assumed): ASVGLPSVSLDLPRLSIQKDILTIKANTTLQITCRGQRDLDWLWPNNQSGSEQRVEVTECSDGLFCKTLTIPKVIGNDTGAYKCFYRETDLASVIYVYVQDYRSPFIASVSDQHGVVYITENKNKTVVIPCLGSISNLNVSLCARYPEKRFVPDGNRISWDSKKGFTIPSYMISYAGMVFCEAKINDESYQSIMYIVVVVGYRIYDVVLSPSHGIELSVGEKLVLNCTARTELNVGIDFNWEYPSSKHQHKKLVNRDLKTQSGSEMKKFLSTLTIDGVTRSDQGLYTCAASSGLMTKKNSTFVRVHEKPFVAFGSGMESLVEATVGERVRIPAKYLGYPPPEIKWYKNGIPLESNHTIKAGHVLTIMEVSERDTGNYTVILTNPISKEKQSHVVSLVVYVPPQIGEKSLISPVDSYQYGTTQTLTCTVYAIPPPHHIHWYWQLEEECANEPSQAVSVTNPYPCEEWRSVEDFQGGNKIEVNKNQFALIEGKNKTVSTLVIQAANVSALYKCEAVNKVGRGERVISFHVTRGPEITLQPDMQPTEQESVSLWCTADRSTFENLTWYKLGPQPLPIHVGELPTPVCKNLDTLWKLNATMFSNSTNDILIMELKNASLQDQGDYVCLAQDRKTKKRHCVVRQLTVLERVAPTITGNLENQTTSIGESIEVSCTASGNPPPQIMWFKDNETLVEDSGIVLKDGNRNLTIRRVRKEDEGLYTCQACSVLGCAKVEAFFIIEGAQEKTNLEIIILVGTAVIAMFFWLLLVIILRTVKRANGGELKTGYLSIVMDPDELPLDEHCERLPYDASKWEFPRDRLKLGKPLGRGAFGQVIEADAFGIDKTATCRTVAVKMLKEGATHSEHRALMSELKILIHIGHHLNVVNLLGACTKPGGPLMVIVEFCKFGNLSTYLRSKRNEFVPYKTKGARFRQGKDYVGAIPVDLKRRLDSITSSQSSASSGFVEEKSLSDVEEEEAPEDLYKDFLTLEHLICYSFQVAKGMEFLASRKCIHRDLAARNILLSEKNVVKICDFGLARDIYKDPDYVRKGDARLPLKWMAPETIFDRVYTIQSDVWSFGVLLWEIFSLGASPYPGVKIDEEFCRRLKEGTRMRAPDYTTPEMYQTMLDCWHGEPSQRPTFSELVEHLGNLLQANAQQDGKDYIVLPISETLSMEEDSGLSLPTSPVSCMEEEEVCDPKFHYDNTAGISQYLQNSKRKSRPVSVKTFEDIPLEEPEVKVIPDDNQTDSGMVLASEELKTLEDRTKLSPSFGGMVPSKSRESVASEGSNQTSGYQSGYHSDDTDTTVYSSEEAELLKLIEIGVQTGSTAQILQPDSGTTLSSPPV
As to the kind of experiment: Kinase inhibition assay (33P transfer), Kdr. Particulars: read-out: KDR-1. The method, boiled down: as §1

Another assay concerns the target T8, IGFR-1 (Homo sapiens, UniProt P08069).
T8 construct: Kinases are expressed as either kinase domains or full length constructs; made in house
As to the kind of experiment: Kinase inhibition assay, IGFR-1 (Table 2). The note with it: Table 2, kinase inhibition class.

The next assay addresses T9, AKT (Homo sapiens, UniProt Q9Y243).
T9 construct: Kinases are expressed as either kinase domains or full length constructs; made in house
As to the kind of experiment: Kinase inhibition assay (33P transfer), AKT. Particulars: Table 2, kinase inhibition class; read-out: AKT3-1. Summed up:
as §1

In another assay the target is T10, PDGFRB (Homo sapiens, UniProt P09619).
T10 construct: Kinases are expressed as either kinase domains or full length constructs; made in house
T10 sequence (P09619 33-1106, species assumed): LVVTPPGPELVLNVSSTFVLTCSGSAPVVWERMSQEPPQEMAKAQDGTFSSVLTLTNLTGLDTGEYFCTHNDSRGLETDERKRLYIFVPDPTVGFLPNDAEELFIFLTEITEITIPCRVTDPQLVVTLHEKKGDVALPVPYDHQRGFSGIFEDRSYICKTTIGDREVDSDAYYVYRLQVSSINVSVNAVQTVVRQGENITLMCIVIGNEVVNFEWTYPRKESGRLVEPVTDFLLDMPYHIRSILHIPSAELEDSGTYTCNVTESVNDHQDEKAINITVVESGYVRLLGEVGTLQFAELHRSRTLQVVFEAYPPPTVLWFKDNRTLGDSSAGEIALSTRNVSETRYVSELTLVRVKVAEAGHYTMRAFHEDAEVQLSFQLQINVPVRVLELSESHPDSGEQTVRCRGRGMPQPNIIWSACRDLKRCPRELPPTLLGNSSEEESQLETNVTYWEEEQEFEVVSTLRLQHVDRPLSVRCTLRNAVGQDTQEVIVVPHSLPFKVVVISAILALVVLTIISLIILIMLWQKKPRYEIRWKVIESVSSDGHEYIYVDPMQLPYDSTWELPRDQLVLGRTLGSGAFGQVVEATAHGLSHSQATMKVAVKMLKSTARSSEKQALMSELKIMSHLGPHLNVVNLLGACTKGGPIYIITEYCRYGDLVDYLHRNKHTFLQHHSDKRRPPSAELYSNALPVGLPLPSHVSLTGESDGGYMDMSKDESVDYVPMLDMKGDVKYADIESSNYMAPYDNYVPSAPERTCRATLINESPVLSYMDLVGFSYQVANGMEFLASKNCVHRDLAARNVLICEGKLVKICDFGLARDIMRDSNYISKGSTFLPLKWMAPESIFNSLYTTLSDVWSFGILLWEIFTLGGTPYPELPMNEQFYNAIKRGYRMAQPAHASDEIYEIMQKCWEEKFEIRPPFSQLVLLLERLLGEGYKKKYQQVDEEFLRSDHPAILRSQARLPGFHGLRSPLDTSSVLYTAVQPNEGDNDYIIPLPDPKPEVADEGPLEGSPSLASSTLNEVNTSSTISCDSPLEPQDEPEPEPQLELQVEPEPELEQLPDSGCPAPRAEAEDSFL
Description: Kinase inhibition assay (33P transfer), PDGFRB. The note with it: read-out: PDGFRB-1.

T9 sequence (Q9Y243 whole entry, the tested form may be a part): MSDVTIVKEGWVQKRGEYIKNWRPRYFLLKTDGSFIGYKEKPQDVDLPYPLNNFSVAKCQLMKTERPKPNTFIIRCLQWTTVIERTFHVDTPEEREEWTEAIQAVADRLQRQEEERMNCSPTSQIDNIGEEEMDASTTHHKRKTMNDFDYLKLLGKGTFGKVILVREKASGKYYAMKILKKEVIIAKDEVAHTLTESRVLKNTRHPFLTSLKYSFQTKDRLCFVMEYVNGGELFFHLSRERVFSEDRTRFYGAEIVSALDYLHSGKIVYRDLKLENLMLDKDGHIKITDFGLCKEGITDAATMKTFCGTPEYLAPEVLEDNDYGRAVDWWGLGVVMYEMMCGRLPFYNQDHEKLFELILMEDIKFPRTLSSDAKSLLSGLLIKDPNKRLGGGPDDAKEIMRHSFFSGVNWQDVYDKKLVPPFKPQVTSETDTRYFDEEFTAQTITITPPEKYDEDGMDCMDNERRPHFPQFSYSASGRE
T1 sequence (P06239 whole entry, species assumed, the tested form may be a part): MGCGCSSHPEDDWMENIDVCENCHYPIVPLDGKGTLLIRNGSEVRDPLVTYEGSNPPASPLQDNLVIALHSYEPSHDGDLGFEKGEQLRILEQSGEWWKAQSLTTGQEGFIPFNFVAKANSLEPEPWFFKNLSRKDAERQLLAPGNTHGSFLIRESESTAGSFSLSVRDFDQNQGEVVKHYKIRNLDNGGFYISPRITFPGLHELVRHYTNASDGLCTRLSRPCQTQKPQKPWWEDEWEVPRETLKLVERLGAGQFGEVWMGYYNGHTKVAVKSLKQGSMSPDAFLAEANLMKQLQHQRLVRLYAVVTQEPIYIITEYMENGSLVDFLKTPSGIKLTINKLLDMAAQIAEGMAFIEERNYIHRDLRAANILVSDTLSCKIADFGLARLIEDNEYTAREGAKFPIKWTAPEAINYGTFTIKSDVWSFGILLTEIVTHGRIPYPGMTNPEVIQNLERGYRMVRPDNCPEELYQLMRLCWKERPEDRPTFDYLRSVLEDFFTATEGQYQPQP

With `Cc1ccc2c(c1)CCCN2c1ncnc(Nc2ccc3ncsc3c2)n1` [Compound 773], the IC50 at Lck was 1.07 to 6.41 µM; at EGFR, 1.07 to 6.41 µM; on Itk, 1.07 to 6.41 µM; on Zap-70, over 12 µM; on ErbB2, 1.07 to 6.41 µM; at c-Met it was under 1.07 µM. For the same compound, the IC50 was 1.07 to 6.41 µM at Kdr, 1.07 to 6.41 µM against IGFR-1, over 12 µM on AKT and under 1.07 µM on PDGFRB.
On to `Cc1ccc2c(c1)CCCN2c1ncnc(Nc2cccc(-c3cnco3)c2)n1` [Compound 774], for which the IC50 on Lck was 1.04 to 6.24 µM; at EGFR it was under 1.04 µM; on Itk it was 1.04 to 6.24 µM; on Zap-70 it was over 11.7 µM; on ErbB2, under 1.04 µM; on c-Met, under 1.04 µM. For the same compound, the IC50 on Kdr is 1.04 to 6.24 µM; on IGFR-1, 6.24 to 9.1 µM; on AKT, 1.04 to 6.24 µM; at PDGFRB, under 1.04 µM.
Regarding `Cc1ccc2c(c1)CCCN2c1ncnc(NCCc2cccnc2)n1` [Compound 775], the IC50 at Lck, at EGFR, on Itk, on Zap-70, at ErbB2 and at c-Met was over 13 µM each time. Also, the IC50 on Kdr, on IGFR-1, at AKT and on PDGFRB was over 13 µM in each case.
On to `Cc1ccc2c(c1)CCCN2c1ncnc(NCCN2CCOCC2)n1` [Compound 776], for which the IC50 at Lck, at EGFR, on Itk, on Zap-70, at ErbB2 and at c-Met was over 12.7 µM each time. Also, the IC50 on Kdr, against IGFR-1, at AKT and at PDGFRB was over 12.7 µM in each case.
Take `Cc1ccc2c(c1)CCCN2c1ncnc(NCc2cccnc2)n1` [Compound 777]: the IC50 at Lck was over 13.5 µM; at EGFR, over 13.5 µM; on Itk, 10.5 to 13.5 µM; at Zap-70 it was over 13.5 µM; on ErbB2 it was over 13.5 µM; on c-Met, over 13.5 µM. Besides, the IC50 on Kdr, against IGFR-1, on AKT and on PDGFRB was over 13.5 µM each time.
On to `Cc1ccc2c(c1)CCCN2c1ncnc(Nc2cccc(Cl)c2C)n1` [Compound 778], for which the IC50 at Lck is over 12.3 µM; on EGFR it was 6.56 to 9.57 µM; on Itk it was over 12.3 µM; on Zap-70 it was over 12.3 µM; on ErbB2, 6.56 to 9.57 µM; on c-Met, 1.09 to 6.56 µM. For the same compound, the IC50 at Kdr is 6.56 to 9.57 µM; against IGFR-1 it was over 12.3 µM; at AKT, 1.09 to 6.56 µM; at PDGFRB it was over 12.3 µM.
With `CCN(CC)c1ccc(Nc2ncnc(N3CCCc4cc(C)ccc43)n2)cc1` [Compound 779], the IC50 on Lck, on EGFR, on Itk, at Zap-70, on ErbB2 and at c-Met was over 11.6 µM each time. For the same compound, the IC50 on Kdr, at IGFR-1, on AKT and on PDGFRB was over 11.6 µM in each case.
As for `COc1ccc(Nc2ncnc(NCC(O)c3ccccc3)n2)cc1OC` (centres unmarked) [Compound 780], the IC50 on Lck is 6.53 to 9.53 µM; on EGFR, 9.53 to 12.2 µM; on Itk, over 12.2 µM; at Zap-70, over 12.2 µM; on ErbB2, over 12.2 µM; on c-Met it was over 12.2 µM. For the same compound, the IC50 at Kdr was over 12.2 µM; against IGFR-1 it was over 12.2 µM; at AKT, over 12.2 µM; on PDGFRB it was 9.53 to 12.2 µM.
